Measured values: ChEMBL document CHEMBL1681651, “A broad spectrum anticancer nucleoside with selective toxicity against human colon cells in vitro” (2011)

Tests used:
Type in all cases: functional
[1] = tested on: COLO 205; assay: Growth inhibition of human COLO205 cells after 48 hrs by […] growth inhibition assay; conditions: COLO 205, 48 h
[2] = tested on: UACC-62; assay: Growth inhibition of human UACC62 cells assessed as cell growth at 0.1 uM after 48 hrs by SRB assay; conditions: UACC-62, 48 h, read-out: Activity
[3] = tested on: MDA-MB-231; assay: Growth inhibition of human MDA-MB-231 cells assessed as cell growth at 100 uM after 48 hrs by SRB assay; conditions: MDA-MB-231, 48 h, read-out: Activity
[4] = tested on: LOX IMVI; assay: Growth inhibition of human LOXIMVI cells assessed as cell growth at 1 uM after 48 hrs by SRB assay; conditions: read-out: Activity
[5] = tested on: NCI/ADR-RES; assay: Growth inhibition of human NCI/ADR-RES cells assessed as cell growth at 0.1 uM after 48 hrs by SRB assay; conditions: read-out: Activity
[6] = tested on: HCT-116; assay: Growth inhibition of human HCT116 cells assessed as cell growth at 0.1 uM after 48 hrs by SRB assay; conditions: HCT-116, 48 h, read-out: Activity
[7] = tested on: MDA-MB-231; assay: Growth inhibition of human MDA-MB-231 cells after 48 hrs by […] growth inhibition assay; conditions: MDA-MB-231, 48 h
[8] = tested on: BT-549; assay: Growth inhibition of human BT549 cells assessed as cell growth at 0.1 uM after 48 hrs by SRB assay; conditions: BT-549, 48 h, read-out: Activity
[9] = tested on: 786-0; assay: Growth inhibition of human 786-0 cells assessed as cell growth at 0.1 uM after 48 hrs by SRB assay; conditions: 786-0, 48 h, read-out: Activity
[10] = tested on: OVCAR-5; assay: Growth inhibition of human OVCAR5 cells after 48 hrs by […] growth inhibition assay; conditions: OVCAR-5, 48 h
[11] = tested on: LOX IMVI; assay: Growth inhibition of human LOXIMVI cells assessed as cell growth at 0.1 uM after 48 hrs by SRB assay; conditions: read-out: Activity
[12] = tested on: LOX IMVI; assay: Growth inhibition of human LOXIMVI cells assessed as cell growth at 100 uM after 48 hrs by SRB assay; conditions: read-out: Activity
[13] = tested on: A498; assay: Growth inhibition of human A498 cells assessed as cell growth at 1 mM after 48 hrs by SRB assay; conditions: A498, 48 h, read-out: Activity
[14] = tested on: OVCAR-3; assay: Growth inhibition of human OVCAR3 cells assessed as cell growth at 1 uM after 48 hrs by SRB assay; conditions: OVCAR-3, 48 h, read-out: Activity
[15] = tested on: SF-268; assay: Growth inhibition of human SF268 cells assessed as cell growth at 1 uM after 48 hrs by SRB assay; conditions: SF-268, 48 h, read-out: Activity
[16] = tested on: SF-295; assay: Growth inhibition of human SF295 cells assessed as cell growth at 0.1 uM after 48 hrs by SRB assay; conditions: SF-295, 48 h, read-out: Activity
[17] = tested on: LOX IMVI; assay: Growth inhibition of human LOXIMVI cells after 48 hrs by […] growth inhibition assay
[18] = tested on: HOP-62; assay: Growth inhibition of human HOP62 cells after 48 hrs by […] growth inhibition assay; conditions: HOP-62, 48 h
[19] = tested on: NCI-H460; assay: Growth inhibition of human NCI-H460 cells assessed as cell growth at 1 mM after 48 hrs by SRB assay; conditions: NCI-H460, 48 h, read-out: Activity
[20] = tested on: T47D; assay: Growth inhibition of human T47D cells assessed as cell growth at 10 uM after 48 hrs by SRB assay; conditions: read-out: Activity
[21] = tested on: SNB-19; assay: Growth inhibition of human SNB19 cells assessed as cell growth at 100 uM after 48 hrs by SRB assay; conditions: SNB-19, 48 h, read-out: Activity
[22] = tested on: T47D; assay: Growth inhibition of human T47D cells assessed as cell growth at 1 mM after 48 hrs by SRB assay; conditions: read-out: Activity
[23] = tested on: NCI-H460; assay: Growth inhibition of human NCI-H460 cells assessed as cell growth at 0.1 uM after 48 hrs by SRB assay; conditions: NCI-H460, 48 h, read-out: Activity
[24] = tested on: NCI-H23; assay: Growth inhibition of human NCI-H23 cells assessed as cell growth at 0.1 uM after 48 hrs by SRB assay; conditions: NCI-H23, 48 h, read-out: Activity
[25] = tested on: NCI-H322M; assay: Growth inhibition of human NCI-H322M cells assessed as cell growth at 10 uM after 48 hrs by SRB assay; conditions: read-out: Activity
[26] = tested on: HT-29; assay: Growth inhibition of human HT-29 cells assessed as cell growth at 0.1 uM after 48 hrs by SRB assay; conditions: HT-29, 48 h, read-out: Activity
[27] = tested on: HOP-62; assay: Growth inhibition of human HOP62 cells assessed as cell growth at 1 mM after 48 hrs by SRB assay; conditions: HOP-62, 48 h, read-out: Activity
[28] = tested on: SF-539; assay: Growth inhibition of human SF539 cells assessed as cell growth at 1 uM after 48 hrs by SRB assay; conditions: SF-539, 48 h, read-out: Activity
[29] = tested on: UACC-257; assay: Growth inhibition of human UACC257 cells assessed as cell growth at 1 mM after 48 hrs by SRB assay; conditions: UACC-257, 48 h, read-out: Activity
[30] = tested on: EKVX; assay: Growth inhibition of human EKVX cells assessed as cell growth at 100 uM after 48 hrs by SRB assay; conditions: read-out: Activity
[31] = tested on: MDA-MB-435; assay: Growth inhibition of human MDA-MB-435 cells assessed as cell growth at 1 mM after 48 hrs by SRB assay; conditions: MDA-MB-435, 48 h, read-out: Activity
[32] = tested on: U-251; assay: Growth inhibition of human U251 cells assessed as cell growth at 0.1 uM after 48 hrs by SRB assay; conditions: U-251, 48 h, read-out: Activity
[33] = tested on: SR; assay: Growth inhibition of human SR cells assessed as cell growth at 10 uM after 48 hrs by SRB assay; conditions: read-out: Activity
[34] = tested on: SW-620; assay: Growth inhibition of human SW620 cells assessed as cell growth at 10 uM after 48 hrs by SRB assay; conditions: SW-620, 48 h, read-out: Activity
[35] = read-out: LC50 (the source's name)
[36] = read-out: pLC50 (the source's name) (converted)

CNC(=O)NC[C@H]1O[C@@H](n2cnc3c(NC(=O)Nc4ccccc4)ncnc32)[C@H](O[Si](C)(C)C(C)(C)C)[C@@H]1O[Si](C)(C)C(C)(C)C
GI50 ([1]; read-out: GI50): 1.89 µM | CC50 [1, 35]: 5.98 µM | TGI ([1]; read-out: TGI): 3.36 µM | GI50 ([1]; read-out: pGI50 (converted)): 1.91 µM | CC50 [1, 36]: 6.03 µM | TGI ([1]; read-out: pTGI (converted)): 3.39 µM | growth at 0.1 µM [2]: 102% | growth at 100 µM [3]: -29% | growth at 1 µM [4]: 101% | growth at 0.1 µM [5]: 106% | growth at 0.1 µM [6]: 107% | GI50 ([7]; read-out: GI50): 2.61 µM | CC50 [7, 35]: 28.3 µM | TGI ([7]; read-out: TGI): 6.12 µM | GI50 ([7]; read-out: pGI50 (converted)): 2.63 µM | CC50 [7, 36]: 28.2 µM | TGI ([7]; read-out: pTGI (converted)): 6.17 µM | growth at 0.1 µM [8]: 113% | growth at 0.1 µM [9]: 108% | GI50 ([10]; read-out: GI50): 5.24 µM | CC50 [10, 35]: > 100 µM | TGI ([10]; read-out: TGI): 25.2 µM | GI50 ([10]; read-out: pGI50 (converted)): 5.25 µM | CC50 [10, 36]: > 100 µM | TGI ([10]; read-out: pTGI (converted)): 25.1 µM | growth at 0.1 µM [11]: 102% | growth at 100 µM [12]: -89% | growth at 1000 µM [13]: -76% | growth at 1 µM [14]: 113% | growth at 1 µM [15]: 106% | growth at 0.1 µM [16]: 103% | GI50 ([17]; read-out: GI50): 1.82 µM | CC50 [17, 35]: 6.21 µM | TGI ([17]; read-out: TGI): 3.36 µM | GI50 ([17]; read-out: pGI50 (converted)): 1.82 µM | CC50 [17, 36]: 6.17 µM | TGI ([17]; read-out: pTGI (converted)): 3.39 µM | GI50 ([18]; read-out: GI50): 4.98 µM | CC50 [18, 35]: 48 µM | TGI ([18]; read-out: TGI): 17.1 µM | GI50 ([18]; read-out: pGI50 (converted)): 5.01 µM | CC50 [18, 36]: 47.9 µM | TGI ([18]; read-out: pTGI (converted)): 17 µM | growth at 1000 µM [19]: -75% | growth at 10 µM [20]: 92% | growth at 100 µM [21]: 29% | growth at 1000 µM [22]: -32% | growth at 0.1 µM [23]: 104% | growth at 0.1 µM [24]: 100% | growth at 10 µM [25]: 105% | growth at 0.1 µM [26]: 102% | growth at 1000 µM [27]: -86% | growth at 1 µM [28]: 100% | growth at 1000 µM [29]: -24% | growth at 100 µM [30]: 9% | growth at 1000 µM [31]: -10% | growth at 0.1 µM [32]: 102%

CNC(=O)NC[C@H]1O[C@@H](n2cnc3c(NC(=O)Nc4ccccc4)ncnc32)[C@H](O[Si](C)(C)C(C)(C)C)[C@@H]1CC(=O)N(C)OC
GI50 ([1]; read-out: GI50): 12.3 µM | CC50 [1, 35]: > 100 µM | TGI ([1]; read-out: TGI): > 100 µM | GI50 ([1]; read-out: pGI50 (converted)): 12.3 µM | CC50 [1, 36]: > 100 µM | TGI ([1]; read-out: pTGI (converted)): > 100 µM | growth at 0.1 µM [2]: 102% | growth at 100 µM [3]: 55% | growth at 1 µM [4]: 96% | growth at 0.1 µM [5]: 109% | growth at 10 µM [33]: 62% | growth at 0.1 µM [6]: 93% | GI50 ([7]; read-out: GI50): 12.3 µM | CC50 [7, 35]: > 100 µM | TGI ([7]; read-out: TGI): > 100 µM | GI50 ([7]; read-out: pGI50 (converted)): 12.3 µM | CC50 [7, 36]: > 100 µM | TGI ([7]; read-out: pTGI (converted)): > 100 µM | growth at 0.1 µM [8]: 95% | growth at 0.1 µM [9]: 95% | GI50 ([10]; read-out: GI50): 38.2 µM | CC50 [10, 35]: > 100 µM | TGI ([10]; read-out: TGI): > 100 µM | GI50 ([10]; read-out: pGI50 (converted)): 38 µM | CC50 [10, 36]: > 100 µM | TGI ([10]; read-out: pTGI (converted)): > 100 µM | growth at 0.1 µM [11]: 97% | growth at 100 µM [12]: 43% | growth at 1000 µM [13]: -16% | growth at 1 µM [14]: 107% | growth at 1 µM [15]: 105% | growth at 0.1 µM [16]: 93% | GI50 ([17]; read-out: GI50): 7.3 µM | CC50 [17, 35]: > 100 µM | TGI ([17]; read-out: TGI): > 100 µM | GI50 ([17]; read-out: pGI50 (converted)): 7.24 µM | CC50 [17, 36]: > 100 µM | TGI ([17]; read-out: pTGI (converted)): > 100 µM | GI50 ([18]; read-out: GI50): 24.9 µM | CC50 [18, 35]: > 100 µM | TGI ([18]; read-out: TGI): > 100 µM | GI50 ([18]; read-out: pGI50 (converted)): 25.1 µM | CC50 [18, 36]: > 100 µM | TGI ([18]; read-out: pTGI (converted)): > 100 µM | growth at 1000 µM [19]: 25% | growth at 10 µM [20]: 84% | growth at 100 µM [21]: 61% | growth at 1000 µM [22]: 17% | growth at 0.1 µM [23]: 96% | growth at 0.1 µM [24]: 106% | growth at 10 µM [25]: 102% | growth at 0.1 µM [26]: 104% | growth at 1000 µM [27]: 28% | growth at 1 µM [28]: 94% | growth at 1000 µM [29]: 22% | growth at 100 µM [30]: 60% | growth at 10 µM [34]: 93% | growth at 1000 µM [31]: 36% | growth at 0.1 µM [32]: 97%
